What was measured:
[1] = log P determination by HPLC on reversed-phase columns (C 18), analogously to OECD Guideline 117; assay type: physicochemical; conditions: HPLC reversed-phase C 18; for logP (HCOOH): LC-MS in the acidic range, pH 2.7, 0.1% aqueous formic acid / acetonitrile; for logP (neutral): LC-MS in the neutral range, pH 7.8, 0.001 molar aqueous ammonium hydrogencarbonate / acetonitrile
Summary of the method: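 Reversed-phase C18 HPLC per OECD 117 with LC-MS detection and a linear 10→95% acetonitrile gradient. Acidic log P run at pH 2.7 with 0.1% formic acid in both eluents. Neutral log P run at pH 7.8 with 0.001 M aqueous ammonium hydrogencarbonate.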

[2] = system: cattle ticks (Boophilus microplus) Parkhurst strain, SP-resistant; test: Boophilus microplus dip test (BOOPMI Dip); assay type: in vivo; conditions: engorged adult female ticks dipped; application rate 100 ppm; assessed after 7 days
Procedure: Boophilus microplus—Dip Test (BOOPMI Dip)
Test animals: cattle ticks (Boophilus microplus) Parkhurst strain, SP-resistant
(§1) Solvent: dimethyl sulfoxide
10 mg of active compound are dissolved in 0.5 ml of dimethyl sulfoxide. To produce a suitable formulation, the active compound solution is diluted with water to the concentration desired in each case.
This active compound preparation is pipetted into tubes. 8-10 engorged adult female cattle ticks (Boophilus microplus) are transferred into a further tube with holes. The tube is immersed into the active compound preparation, and all the ticks are completely wetted. After the liquid has run out, the ticks are transferred on filter disks into plastic dishes and stored in a climate-controlled room.
(§2) Efficacy is assessed after 7 days by laying of fertile eggs. Eggs which are not visibly fertile are stored in a climate-controlled cabinet until the larvae hatch after about 42 days. An efficacy of 100% means that none of the ticks has laid any fertile eggs; 0% means that all the eggs are fertile.

[3] = system: green peach aphid (Myzus persicae); test: Myzus persicae spray test (MYZUPE); assay type: in vivo; conditions: Chinese cabbage leaf disks; application rate 500 g/ha; after 6 days
Procedure: Myzus persicae—Spray Test (MYZUPE)
Solvent: 78 parts by weight of acetone
(§3) • 1.5 parts by weight of dimethylformamide Emulsifier: alkylaryl polyglycol ether
(§4) To produce a suitable preparation of active compound, 1 part by weight of active compound is dissolved using the stated parts by weight of solvent and made up with water containing an emulsifier concentration of 1000 ppm until the desired concentration is attained. To produce further test concentrations, the preparation is diluted with emulsifier-containing water.
Disks of Chinese cabbage leaves (Brassica pekinensis) infested by all stages of the green peach aphid (Myzus persicae) are sprayed with an active compound preparation of the desired concentration.
After 6 days, the efficacy in % is determined. 100% means that all the aphids have been killed; 0% means that none of the aphids have been killed.

[4] = system: cattle ticks (Boophilus microplus); test: Boophilus microplus injection test (BOOPMI inj); assay type: in vivo; conditions: injection into the abdomen; application rate 20 μg/animal; assessed after 7 days
Procedure: Boophilus microplus—Injection Test (BOOPMI inj)
as §1
To produce a suitable preparation of active compound, 10 mg of active compound are mixed with 0.5 ml of solvent and the concentrate is diluted with solvent to the desired concentration.
1 μl of the active compound solution is injected into the abdomen of 5 engorged adult female cattle ticks (Boophilus microplus). The animals are transferred into dishes and kept in a climate-controlled room.
as §2

[5] = system: greenhouse red spider mite (Tetranychus urticae); test: Tetranychus urticae spray test, OP-resistant (TETRUR), bean leaf disks; assay type: in vivo; conditions: bean leaf disks; application rate 500 g/ha; after 6 days
Summary of the method: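 Bean leaf disks carrying all stages of OP-resistant Tetranychus urticae sprayed with compound in acetone/dimethylformamide diluted in emulsifier water. Kill assessed after 6 days as % efficacy, 100% meaning all mites dead.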

[6] = system: caterpillars of the armyworm (Spodoptera frugiperda); test: Spodoptera frugiperda spray test (SPODFR); assay type: in vivo; conditions: maize leaf disks; application rate 500 g/ha; after 7 days
Procedure: Spodoptera frugiperda—Spray Test (SPODFR)
(§5) Solvent: 78.0 parts by weight of acetone
as §3, §4
Leaf disks of maize (Zea mays) are sprayed with an active compound preparation of the desired concentration and, after drying, populated with caterpillars of the armyworm (Spodoptera frugiperda).
After 7 days, the efficacy in % is determined. 100% means that all the caterpillars have been killed; 0% means that no caterpillars have been killed.

[7] = system: larvae of the mustard beetle (Phaedon cochleariae); test: Phaedon cochleariae spray test (PHAECO); assay type: in vivo; conditions: Chinese cabbage leaf disks; application rate 500 g/ha; after 7 days
Procedure: Phaedon cochleariae—Spray Test (PHAECO)
as §5, §3, §4
After 7 days, the efficacy in % is determined. 100% means that all the beetle larvae have been killed; 0% means that no beetle larvae have been killed.

Amblyomma hebraeum = Amblyomma hebraeum test (AMBYHE), tick nymph immersion; assay type: in vivo; conditions: tick nymphs immersed for one minute; application rate 100 ppm; after 42 days
Procedure: Amblyomma hebaraeum Test (AMBYHE)
as §1
To produce a suitable preparation of active compound, 10 mg of active compound are mixed with 0.5 ml of dimethyl sulfoxide, and the concentrate is diluted with water to the desired concentration.
Tick nymphs (Amblyomma hebraeum) are placed into perforated plastic beakers and immersed in the desired concentration for one minute. The ticks are transferred on filter paper into a Petri dish and stored in a climate-controlled cabinet.
After 42 days, the kill in % is determined. 100% means that all of the ticks have been killed; 0% means that none of the ticks have been killed.

SMILES	logP (HCOOH) [1]	logP (neutral) [1]	efficacy (laying of fertile eggs) [2] [%]	efficacy in % [3] [%]	efficacy (laying of fertile eggs) [4] [%]	efficacy in % [5] [%]	efficacy in % [6] [%]	efficacy in % [7] [%]	kill in % (Amblyomma hebraeum) [%]
Cc1ccc(-n2c(=O)n(C(C)C)c(=O)n2C)cc1[S+]([O-])CC(F)(F)F (centres unmarked) [Example 141]	2.27	2.24	90	100	100	90	–	–	–
Cc1cc(F)c(N2C(=O)OC(C)C2=O)cc1[S+]([O-])CC(F)(F)F (centres unmarked) [Example 206]	2.08	–	–	100	–	–	–	–	–
Cc1cc(F)c(-n2[nH]c(=O)n(-c3cccc(Cl)c3)c2=O)cc1SCC(F)(F)F [Example 157]	3.31	1.33	–	–	–	–	100	–	–
Cc1cc(F)c(N2C(=O)CN(C)C2=O)cc1SCC(F)(F)F [Example 200]	2.42	2.33	–	–	–	90	100	100	–
Cc1cc(F)c(-n2[nH]c(=O)n(C3CC3)c2=O)cc1SCC(F)(F)F [Example 207]	1.57	−0.23	–	–	–	90	83	–	–
Cc1cc(F)c(-n2c(=O)n(C(C)C)c(=O)n2C)cc1SCC(F)(F)F [Example 91]	3.35	3.28	100	–	100	100	–	–	100

From patent publication US9981928B2, “Aryl sulfide derivatives and aryl sulfoxide derivatives as acaricides and insecticides” (BAYER CROPSCIENCE AKTIENGESELLSCHAFT, priority 2013, dated 2018)
